Drawing on ChEMBL document CHEMBL1149045, “Further butenolides from the Caribbean octocoral Pterogorgia citrina” (J Nat Prod, 1994), this text covers Activity and IC50 for eight compounds.

Each structure is given as a SMILES string. The source made the active and inactive calls. The calls are words filed in the database; no cut-off is given here.

Experiment [1] deals with Staphylococcus aureus. Briefly: Antimicrobial activity against Staphylococcus aureus at 5 ug/disk. Format: functional, organism-based.
Experiment [2] has as its system Escherichia coli. The experiment is described as follows: Antimicrobial activity against Escherichia coli at 1 ug/disk. Format: functional, organism-based.
For experiment [3], the system named is Escherichia coli. Briefly: Antimicrobial activity against Escherichia coli at 5 ug/disk. Format: functional, organism-based.
Experiment [4] concerns Escherichia coli. The experiment is described as follows: Antimicrobial activity against Escherichia coli at 10 ug/disk. The experiment is classed as functional, organism-based.
Experiment [5] has as its system Staphylococcus aureus. Briefly: Antimicrobial activity against Staphylococcus aureus at 1 ug/disk. Format: functional, organism-based.
The test system of experiment [6] is Staphylococcus aureus. The experiment is described as follows: Antimicrobial activity against Staphylococcus aureus at 10 ug/disk. Format: functional, organism-based.
Experiment [7] deals with HCT-116. The experiment is described as follows: Cytotoxicity against human HCT116 cells. The experiment is classed as functional, cell-based.

Take `CC(=O)O[C@H]1[C@H](C)OC(=O)[C@H]1CCCCCCCCCCCCCCC1=C[C@H](C)OC1=O`: the outcome in experiment [1], in experiment [2], in experiment [3], in experiment [4], in experiment [5] and in experiment [6] was inactive.
On to `CC(=O)O[C@@H]1[C@H](C)OC(=O)[C@@H]1CCCCCCCCCCCCCCC1=C[C@H](C)OC1=O`, for which the outcome in experiment [1], in experiment [2], in experiment [3], in experiment [4], in experiment [5] and in experiment [6] was inactive.
A word on the IC50: it is the concentration at which inhibition is half-maximal. Read a low IC50 as higher potency. Take `CC(=O)O[C@@H]1[C@H](C)OC(=O)[C@@H]1CCCCCCCCCCCCC1=C[C@H](C)OC1=O` [ANCEPSENOLIDE ACETATE]: the result in experiment [1], in experiment [2], in experiment [3], in experiment [4], in experiment [5] and in experiment [6] was inactive. For the same compound, in experiment [7], the IC50 was over 50 µg/mL.
On to `C[C@H]1C=C(CCCCCC/C=C\CCCCCCC2=C[C@H](C)OC2=O)C(=O)O1`, for which the outcome in experiment [1], in experiment [2], in experiment [3], in experiment [4], in experiment [5] and in experiment [6] was inactive. The IC50 in experiment [7] was over 50 µg/mL.
With `CC(=O)O[C@@H]1[C@H](C)OC(=O)[C@@H]1CCCCCC/C=C\CCCCCCC1=C[C@H](C)OC1=O`, the result in experiment [1], in experiment [2], in experiment [3], in experiment [4], in experiment [5] and in experiment [6] was inactive.
Turning to `C[C@@H]1OC(=O)[C@@H](CCCCCCCCCCCCC2=C[C@H](C)OC2=O)[C@H]1O`, the result in experiment [1], in experiment [2], in experiment [3], in experiment [4], in experiment [5] and in experiment [6] was inactive.
As for `CC(=O)O[C@H]1[C@H](C)OC(=O)[C@H]1CCCCCCCCCCCCC1=C[C@H](C)OC1=O`, the result in experiment [1], in experiment [2], in experiment [3], in experiment [4], in experiment [5] and in experiment [6] was inactive.
With `C[C@H]1C=C(CCCCCCCCCCCCCCC2=C[C@H](C)OC2=O)C(=O)O1` [HOMOANCEPSENOLIDE], the result in experiment [1], in experiment [2], in experiment [3], in experiment [4], in experiment [5] and in experiment [6] was inactive. Also, the half-maximal inhibitory concentration (IC50) in experiment [7] is over 50 µg/mL.
